Measured values from patent US20260240154A1, “GLOBODERA PALLIDA CONTROL AGENT” (National Agriculture and Food Research Organization, priority 2021, published 2026).

System: Globodera pallida eggs
Assay: Hatching accelerating effect evaluation test for Globodera pallida (liquid immersion test)
Format: in vivo
Conditions: for Average hatching rate at 1 ppm (%): optically active compounds; for Average hatching rate (%): 1 mL of 2 ppm test reagent solution added to 1 mL egg suspension, 16° C., about 2 weeks, two replicates
Procedure: A predetermined amount of compound (I) was dissolved in an aqueous solution containing 0.05% (v/v) of polyoxyethylene sorbitan monolaurate (Tween20) to prepare a 100 ppm solution of compound (I).
The 100 ppm solution of compound (I) was further diluted with a 0.05% (v/v) Tween20 aqueous solution to prepare a test reagent solution with a concentration of compound (I) of 2 ppm.
The cysts of Globodera pallida increased in a greenhouse before the previous year were isolated from the soil, immersed in distilled water and kept at 16° C. for about 2 weeks were crushed with a scalpel and the eggs were taken out to obtain an egg suspension. After preparing a density of approximately 600 eggs per mL, Tween 20 was added to a concentration of 0.05% (v/v). 1 mL of this egg suspension was put into a 13.5 mL screw cap glass vial (inner diameter: 2.1 cm, height: 4.8 cm), and 1 mL each of a test reagent solution with a concentration of compound (I) of 2 ppm was added. It was covered and kept at 16° C.
About 2 weeks later, 1 mL was taken out, and the number of hatching larvae and the number of eggs were counted under a stereomicroscope. Two replicates were installed for each compound, and the average hatching rate was calculated.

SMILES | Average hatching rate at 1 ppm (%) | Average hatching rate (%)
CC1(C)NC(=O)CC1c1ccccc1 (single isomer, unassigned) [1 (−), 5,5-dimethyl-4-phenyl-2-pyrrolidinone] | 87.7% | –
CC1(C)NC(=O)CC1c1ccc(Cl)cc1 (single isomer, unassigned) [3 (−), 5,5-dimethyl-4-(4-chlorophenyl)-2-pyrrolidinone] | 92.0% | –
CC1(C)NS(=O)(=O)CC1c1ccc(Cl)cc1 (single isomer, unassigned) [B-12 (−), 4-(4-chlorophenyl)-3,3-dimethylisothiazolidine-1,1-dioxide] | 94.6% | –
CC1(C)NC(=O)CC1c1ccccc1 (single isomer, unassigned; (+)) [1 (+), (+)-5,5-dimethyl-4-phenyl-2-pyrrolidinone] | 37.8% | –
Cc1ccc(C2CC(=O)NC2(C)C)cc1 (single isomer, unassigned; (+)) [2 (+), (+)-5,5-dimethyl-4-(4-methylphenyl)-2-pyrrolidinone] | 63.6% | –
CC1(C)NC(=O)CC1c1ccc(Cl)cc1 (single isomer, unassigned; (+)) [3 (+), (+)-5,5-dimethyl-4-(4-chlorophenyl)-2-pyrrolidinone] | 93.2% | –
CC1(C)NS(=O)(=O)CC1c1ccc(Cl)cc1 (single isomer, unassigned; (+)) [B-12 (+), (+)-4-(4-chlorophenyl)-3,3-dimethylisothiazolidine-1,1-dioxide] | 95.2% | –
Cc1ccc(C2CC(=O)NC2(C)C)cc1 (single isomer, unassigned; (-)) [Compound 2 (−), (−)-5,5-dimethyl-4-(4-methylphenyl)-2-pyrrolidinone] | 91.8% | –
CC1(C)NC(=O)[C@H]2C[C@]21c1ccccc1 (stereo in doubt) [Compound C-1, 4,4-dimethyl-5-phenyl-3-azabicyclo[3.1.0]hexan-2-one] | – | 94.0%
CC1(C)NC(=O)CC1c1ccccc1 (stereo not drawn) [Compound 1, 5,5-dimethyl-4-phenyl-2-pyrrolidinone] | – | 83.0%
COc1ccc(C2CC(=O)NC2(C)C)cc1 (stereo not drawn) [Compound 6, 5,5-dimethyl-4-(4-methoxyphenyl)-2-pyrrolidinone] | – | 38.0%
CC1(C)NC(=O)CC1c1ccc(C(F)(F)F)cc1 (stereo not drawn) [Compound 7, 5,5-dimethyl-4-(4-trifluoromethylphenyl)-2-pyrrolidinone] | – | 86.6%
CC1(C)NC(=O)CC1c1ccc(F)cc1 (stereo not drawn) [Compound 8, 5,5-dimethyl-4-(4-fluorophenyl)-2-pyrrolidinone] | – | 94.1%
Cc1cccc(C2CC(=O)NC2(C)C)c1 (stereo not drawn) [Compound 9, 5,5-dimethyl-4-(3-methylphenyl)-2-pyrrolidinone] | – | 72.3%
Cc1ccccc1C1CC(=O)NC1(C)C (stereo not drawn) [Compound 10, 5,5-dimethyl-4-(2-methylphenyl)-2-pyrrolidinone] | – | 69.2%
Cc1ccc(C)c(C2CC(=O)NC2(C)C)c1 (stereo not drawn) [Compound 11, 5,5-dimethyl-4-(2,5-dimethyl-phenyl)-2-pyrrolidinone] | – | 72.9%
CC1(C)NC(=O)CC1c1cc(F)c(F)c(F)c1 (stereo not drawn) [Compound 13, 5,5-dimethyl-4-(3,4,5-trifluoro-phenyl)-2-pyrrolidinone] | – | 62.6%
Cc1ccc(C2CC(=O)NC2(C)C)c(C)c1 (stereo not drawn) [Compound 14, 5,5-dimethyl-4-(2,4-dimethyl-phenyl)-2-pyrrolidinone] | – | 37.6%
CC1C(=O)NC(C)(C)C1c1ccccc1 (stereo not drawn) [Compound 15, 3,5,5-trimethyl-4-phenyl-2-pyrrolidinone] | – | 77.3%
CC1(C)NC(=S)CC1c1ccccc1 (stereo not drawn) [Compound 16, 5,5-dimethyl-4-phenyl pyrrolidine-2-thione] | – | 69.2%
CC1(C)OC(=O)CC1c1ccccc1 (stereo not drawn) [Compound 17, 5,5-dimethyl-4-phenyldihydrofuran-2(3H)-one] | – | 58.6%
CC1(C)OC(=O)CC1c1ccc(F)cc1 (stereo not drawn) [Compound 19, 4-(4-fluorophenyl)-5,5-dimethyldihydrofuran-2(3H)-one] | – | 84.6%
Cc1ccccc1C1CC(=O)OC1(C)C (stereo not drawn) [Compound 20, 5,5-dimethyl-4-(o-tolyl)dihydrofuran-2(3H)-one] | – | 63.1%
CC1(C)CC(=O)CC1c1ccccc1 (stereo not drawn) [Compound 21, 3,3-dimethyl-4-phenyl-cyclopentanone] | – | 76.6%

SMILES | Average hatching rate at 1 ppm (%) | Average hatching rate (%)
CC1(C)NC(=O)CCC1c1ccccc1 (stereo not drawn) [Compound A-1] | – | 77.4%
CC1(C)NC(=O)CCC1c1ccc(Br)cc1 (stereo not drawn) [Compound A-2] | – | 97.4%
COC(=O)c1ccc(C2CCC(=O)NC2(C)C)cc1 (stereo not drawn) [Compound A-4] | – | 68.8%
CC1(C)SC(=O)CCC1c1ccccc1 (stereo not drawn) [Compound A-5] | – | 92.6%
CC1(C)SC(=O)CCC1c1ccc(Cl)cc1 (stereo not drawn) [Compound A-6, 5-(4-chlorophenyl)-6,6-dimethyl tetrahydro-2H-thiopyran-2-one] | – | 93.6%
Cc1ccc(C2CCC(=O)SC2(C)C)cc1 (stereo not drawn) [Compound A-7] | – | 93.9%
CC1(C)OC(=S)CC1c1ccccc1 (stereo not drawn) [Compound B-1] | – | 70.4%
Cc1ccc(C2CC(=S)OC2(C)C)cc1 (stereo not drawn) [Compound B-2, 5,5-dimethyl-4-(p-tolyl)dihydrofuran-2 (3H)-thione] | – | 86.6%
Cc1ccc(C)c(C2CC(=S)OC2(C)C)c1 (stereo not drawn) [Compound B-3] | – | 21.2%
CC1(C)SC(=O)CC1c1ccccc1 (stereo not drawn) [Compound B-4] | – | 96.3%
CC1(C)SC(=O)CC1c1ccc(Br)cc1 (stereo not drawn) [Compound B-5] | – | 96.9%
Cc1ccc(C2CC(=O)SC2(C)C)cc1 (stereo not drawn) [Compound B-6, 5,5-dimethyl-4-(p-tolyl)dihydrothiophene-2 (3H)-one] | – | 97.1%
CC1(C)SC(=O)CC1c1ccc(Cl)cc1 (stereo not drawn) [Compound B-7] | – | 96.6%
Cc1ccc(C)c(C2CC(=O)SC2(C)C)c1 (stereo not drawn) [Compound B-8] | – | 51.2%
CC1(C)NS(=O)(=O)CC1c1ccccc1 (stereo not drawn) [Compound B-9] | – | 69.5%
CC1(C)NS(=O)(=O)CC1c1ccc(Br)cc1 (stereo not drawn) [Compound B-10] | – | 82.7%
Cc1ccc(C2CS(=O)(=O)NC2(C)C)cc1 (stereo not drawn) [Compound B-11] | – | 80.2%
CC1(C)NS(=O)(=O)CC1c1ccc(Cl)cc1 (stereo not drawn) [Compound B-12, 4-(4-chlorophenyl)-3,3-dimethylisothiazolidine-1,1-dioxide] | – | 93.0%
Cc1cccc(C2CC(=O)OC2(C)C)c1C [Compound D-1] | – | 65.6%
Cc1ccc(C2CC(=O)OC2(C)C)c(C)c1 [Compound D-2] | – | 94.7%
Cc1ccc(C2CC(=O)OC2(C)C)cc1C [Compound D-3] | – | 58.8%
Cc1cc(C)cc(C2CC(=O)OC2(C)C)c1 [Compound D-4] | – | 40.1%
CCc1ccc(C2CC(=O)OC2(C)C)cc1 [Compound D-5] | – | 56.6%
CC(C)(C)c1ccc(C2CC(=O)OC2(C)C)cc1 [Compound D-6] | – | 67.5%
